Patent publication US20120329787A1, “FUNGICIDAL PYRANONES AND OXAZINONES” (E.I. DU PONT DE NEMOURS AND COMPANY, priority 2011, published 2012)

Key:
Type in all cases: in vivo
[1] = test system: Erysiphe graminis f. sp. tritici; test: Test I: wheat powdery mildew, spray on wheat seedlings the day before inoculation; conditions: 200 ppm test suspension; for pest or weed control at 200 ppm: Blumeria graminis, 168 h, read-out: Test I rating (100 = 100% disease control, 0 = no disease control)
From the text: General protocol for preparing test suspensions for Tests A-I: the test compounds were first dissolved in acetone in an amount equal to 3% of the final volume and then suspended at the desired concentration (in ppm) in acetone and purified water (50/50 mix by volume) containing 250 ppm of the surfactant Trem® 014 (polyhydric alcohol esters). The resulting test suspensions were then used in Tests A-I. Spraying a 200 ppm test suspension to the point of run-off on the test plants was the equivalent of a rate of 500 g/ha. […] (An asterisk “*” next to the rating value indicates a 40 ppm test suspension was used.) The test suspension was sprayed to the point of run-off on wheat seedlings. The following day, the seedlings were inoculated with a spore dust of Erysiphe graminis f. sp. tritici, (the causal agent of wheat powdery mildew) and incubated in a growth chamber at 20° C. for 7 days, after which time visual disease ratings were made. […] A dash (-) indicates no test results. All results are for 200 ppm except where followed by an asterisk “*”, which indicates a 40 ppm.

[2] = test system: Alternaria solani; test: Test B: tomato early blight, spray on tomato seedlings the day before inoculation; conditions: 200 ppm test suspension; for pest or weed control at 200 ppm: Alternaria solani, 168 h, read-out: Test B rating (100 = 100% disease control, 0 = no disease control)
From the text: General protocol for preparing test suspensions for Tests A-I: the test compounds were first dissolved in acetone in an amount equal to 3% of the final volume and then suspended at the desired concentration (in ppm) in acetone and purified water (50/50 mix by volume) containing 250 ppm of the surfactant Trem® 014 (polyhydric alcohol esters). The resulting test suspensions were then used in Tests A-I. Spraying a 200 ppm test suspension to the point of run-off on the test plants was the equivalent of a rate of 500 g/ha. […] (An asterisk “*” next to the rating value indicates a 40 ppm test suspension was used.) The test suspension was sprayed to the point of run-off on tomato seedlings. The following day, the seedlings were inoculated with a spore suspension of Alternaria solani (the causal agent of tomato early blight) and incubated in a saturated atmosphere at 27° C. for 48 h, and then moved to a growth chamber at 20° C. for 5 days, after which time visual disease ratings were made. […] A dash (-) indicates no test results. All results are for 200 ppm except where followed by an asterisk “*”, which indicates a 40 ppm.

[3] = test system: Septoria nodorum; test: Test E: Septoria glume blotch, spray on wheat seedlings the day before inoculation; conditions: 200 ppm test suspension; for pest or weed control at 200 ppm: Parastagonospora nodorum, 264 h, read-out: Test E rating (100 = 100% disease control, 0 = no disease control)
From the text: General protocol for preparing test suspensions for Tests A-I: the test compounds were first dissolved in acetone in an amount equal to 3% of the final volume and then suspended at the desired concentration (in ppm) in acetone and purified water (50/50 mix by volume) containing 250 ppm of the surfactant Trem® 014 (polyhydric alcohol esters). The resulting test suspensions were then used in Tests A-I. Spraying a 200 ppm test suspension to the point of run-off on the test plants was the equivalent of a rate of 500 g/ha. […] (An asterisk “*” next to the rating value indicates a 40 ppm test suspension was used.) The test suspension was sprayed to the point of run-off on wheat seedlings. […] A dash (-) indicates no test results. All results are for 200 ppm except where followed by an asterisk “*”, which indicates a 40 ppm.

[4] = test system: Botrytis cinerea; test: Test A: tomato Botrytis, spray on tomato seedlings the day before inoculation; conditions: 200 ppm test suspension; for pest or weed control at 200 ppm: Botrytis cinerea, 120 h, read-out: Test A rating (100 = 100% disease control, 0 = no disease control)
From the text: General protocol for preparing test suspensions for Tests A-I: the test compounds were first dissolved in acetone in an amount equal to 3% of the final volume and then suspended at the desired concentration (in ppm) in acetone and purified water (50/50 mix by volume) containing 250 ppm of the surfactant Trem® 014 (polyhydric alcohol esters). The resulting test suspensions were then used in Tests A-I. Spraying a 200 ppm test suspension to the point of run-off on the test plants was the equivalent of a rate of 500 g/ha. […] (An asterisk “*” next to the rating value indicates a 40 ppm test suspension was used.) The test suspension was sprayed to the point of run-off on tomato seedlings. The following day, the seedlings were inoculated with a spore suspension of Botrytis cinerea (the causal agent of tomato Botrytis) and incubated in a saturated atmosphere at 20° C. for 48 h, and then moved to a growth chamber at 24° C. for 3 additional days, after which time visual disease ratings were made. […] A dash (-) indicates no test results. All results are for 200 ppm except where followed by an asterisk “*”, which indicates a 40 ppm.

[5] = test system: Septoria tritici; test: Test F: wheat leaf blotch, spray on wheat seedlings the day before inoculation; conditions: 200 ppm test suspension; for pest or weed control at 200 ppm: Zymoseptoria tritici, 504 h, read-out: Test F rating (100 = 100% disease control, 0 = no disease control)
From the text: General protocol for preparing test suspensions for Tests A-I: the test compounds were first dissolved in acetone in an amount equal to 3% of the final volume and then suspended at the desired concentration (in ppm) in acetone and purified water (50/50 mix by volume) containing 250 ppm of the surfactant Trem® 014 (polyhydric alcohol esters). The resulting test suspensions were then used in Tests A-I. Spraying a 200 ppm test suspension to the point of run-off on the test plants was the equivalent of a rate of 500 g/ha. […] (An asterisk “*” next to the rating value indicates a 40 ppm test suspension was used.) The test suspension was sprayed to the point of run-off on wheat seedlings. The following day, the seedlings were inoculated with a spore suspension of Septoria tritici (the causal agent of wheat leaf blotch) and incubated in a saturated atmosphere at 24° C. for 48 h, and then the seedlings were moved to a growth chamber at 20° C. for 19 additional days, after which time visual disease ratings were made. […] A dash (-) indicates no test results. All results are for 200 ppm except where followed by an asterisk “*”, which indicates a 40 ppm.

[6] = test system: Puccinia recondita f. sp. tritici; test: Test G: wheat leaf rust, spray on wheat seedlings after inoculation (curative); conditions: 200 ppm test suspension, sprayed after inoculation; for pest or weed control at 200 ppm: Puccinia recondita, 96 h, read-out: Test G rating (100 = 100% disease control, 0 = no disease control)
From the text: General protocol for preparing test suspensions for Tests A-I: the test compounds were first dissolved in acetone in an amount equal to 3% of the final volume and then suspended at the desired concentration (in ppm) in acetone and purified water (50/50 mix by volume) containing 250 ppm of the surfactant Trem® 014 (polyhydric alcohol esters). The resulting test suspensions were then used in Tests A-I. Spraying a 200 ppm test suspension to the point of run-off on the test plants was the equivalent of a rate of 500 g/ha. […] (An asterisk “*” next to the rating value indicates a 40 ppm test suspension was used.) Wheat seedlings were inoculated with a spore suspension of Puccinia recondita f. sp. tritici (the causal agent of wheat leaf rust) and incubated in a saturated atmosphere at 20° C. for 24 h, and then moved to a growth chamber at 20° C. for 2 days. At the end of this time, the test suspension was sprayed to the point of run-off, and then the seedlings were moved to a growth chamber at 20° C. for 4 days after which time visual disease ratings were made. […] A dash (-) indicates no test results. All results are for 200 ppm except where followed by an asterisk “*”, which indicates a 40 ppm.

[7] = test system: Puccinia recondita f. sp. tritici; test: Test H: wheat leaf rust, spray on wheat seedlings the day before inoculation; conditions: 200 ppm test suspension, sprayed before inoculation; for pest or weed control at 200 ppm: Puccinia recondita, 168 h, read-out: Test H rating (100 = 100% disease control, 0 = no disease control)
From the text: General protocol for preparing test suspensions for Tests A-I: the test compounds were first dissolved in acetone in an amount equal to 3% of the final volume and then suspended at the desired concentration (in ppm) in acetone and purified water (50/50 mix by volume) containing 250 ppm of the surfactant Trem® 014 (polyhydric alcohol esters). The resulting test suspensions were then used in Tests A-I. Spraying a 200 ppm test suspension to the point of run-off on the test plants was the equivalent of a rate of 500 g/ha. […] (An asterisk “*” next to the rating value indicates a 40 ppm test suspension was used.) The test suspension was sprayed to the point of run-off on wheat seedlings. The following day, the seedlings were inoculated with a spore suspension of Puccinia recondita f. sp. tritici (the causal agent of wheat leaf rust) and incubated in a saturated atmosphere at 20° C. for 24 h, and then moved to a growth chamber at 20° C. for 6 days, after which time visual disease ratings were made Results for Tests A-I are given in Table A. […] A dash (-) indicates no test results. All results are for 200 ppm except where followed by an asterisk “*”, which indicates a 40 ppm.

Row | Structure (SMILES) | pest or weed control at 200 ppm [1] [%] | pest or weed control at 200 ppm [2] [%] | pest or weed control at 200 ppm [3] [%] | pest or weed control at 200 ppm [4] [%] | pest or weed control at 200 ppm [5] [%] | pest or weed control at 200 ppm [6] [%] | pest or weed control at 200 ppm [7] [%] | Test I rating (100 = 100% disease control, 0 = no disease control) [1] [%] | Test B rating (100 = 100% disease control, 0 = no disease control) [2] [%] | Test E rating (100 = 100% disease control, 0 = no disease control) [3] [%] | Test A rating (100 = 100% disease control, 0 = no disease control) [4] [%] | Test F rating (100 = 100% disease control, 0 = no disease control) [5] [%] | Test G rating (100 = 100% disease control, 0 = no disease control) [6] [%] | Test H rating (100 = 100% disease control, 0 = no disease control) [7] [%]
1 | COc1cc(OC)cc(-c2c(C)oc(=O)c(C)c2-c2ccc(F)cc2F)c1 [Compound 42, 4-(2,4-difluorophenyl)-5-(3,5-dimethoxyphenyl)-3,6-dimethyl-2H-pyran-2-one] | 99 | 0 | 0 | 98 | 100 | 0 | 100 |  |  |  |  |  |  | 
2 | COc1cc(OC)cc(-c2c(C)oc(=O)c(C)c2-c2c(F)cc(OC)cc2F)c1 [Compound 43] |  |  |  |  |  |  |  | 100 | 100 | 100 | 100 | 100 | 98 | 100
3 | COc1cc(F)c(-c2c(C)oc(=O)c(C)c2-c2c(Cl)c(OC)cc(OC)c2Cl)c(F)c1 [Compound 44] |  |  |  |  |  |  |  | 0 | 0 | 0 | 79 | 73 | 26 | 96
4 | COc1cc(OC)cc(-c2c(-c3ccc(F)cc3Cl)c(C)oc(=O)c2C)c1 [Compound 46] |  |  |  |  |  |  |  | 99 | 98 | 95 | 100 | 100 | 79 | 100
5 | COc1cc(OC)cc(-c2c(-c3ccc(F)cc3F)c(C)oc(=O)c2C)c1 [Compound 48, 5-(2,4-difluorophenyl)-4-(3,5-dimethoxyphenyl)-3,6-dimethyl-2H-pyran-2-one] | 100 | 97 | 99 | 100 | 100 | 100 | 100 |  |  |  |  |  |  | 
6 | COc1cc(F)c(-c2c(-c3cc(OC)cc(OC)c3Cl)c(C)oc(=O)c2C)c(F)c1 [Compound 49] |  |  |  |  |  |  |  | 99 | 100 | 99 | 100 | 100 | 100 | 100
7 | COc1cc(OC)cc(-c2c(-c3c(F)cccc3F)c(C)oc(=O)c2C)c1 [Compound 51] |  |  |  |  |  |  |  | 96 | 0 | 0 | 100 | 100 | 75 | 100
8 | COc1cc(OC)c(Cl)c(-c2c(-c3c(F)cccc3F)c(C)oc(=O)c2C)c1Cl [Compound 53] |  |  |  |  |  |  |  | 0 | 0 | 0 | 61 | 47 | 0 | 88
9 | COc1cc(OC)c(Cl)c(-c2c(-c3ccc(F)cc3Cl)c(C)oc(=O)c2C)c1 [Compound 54, 4-(2-chloro-3,5-dimethoxyphenyl)-5-(2-chloro-4-fluorophenyl)-3,6-dimethyl-2H-pyran-2-one] | 100 | 96 | 100 | 100 | 100 | 99 | 100 |  |  |  |  |  |  | 
